IC50 data for one molecule are collected here from publication PMC4380447, “Infrared Fluorescent Imaging as a Potent Tool for In Vitro, Ex Vivo and In Vivo Models of Visceral Leishmaniasis” (PLoS Neglected Tropical Diseases, 2015).

The test system of this experiment is HSP70+L. infantum amastigotes. Put plainly: ex vivo splenic explant culture of infrared HSP70+L. infantum-infected BALB/c mice, infrared fluorescence readout (384-well). The experiment is classed as cell-based. Particulars: Leishmania infantum. The source says:
Several parameters were included in the development of the explant culture. i) Parasite infection rate is not equal in all animals from the same batch, thus in order to normalize the ex vivo culture, only spleens with weights ≥ 0.7 g were selected to prepare the ex vivo explants. ii) The starting cell density was adjusted in terms of fluorescence emission in a wide range of arbitrary units (0.25, 0.5, 1.0, and 2.0 x 10^5 AU). Since we intend to evaluate the drug inhibition in ex vivo cultures for at least 4 days, the initial number of AU that matched this condition was chosen. iii) Discrimination between drug-treated and untreated control cells was assessed by adding amphotericin B (AmpB) to the explants cultures. iv) To prevent the edge effect caused by evaporation from outer wells in assays with multi-day incubations, the top and bottom rows as well as the first and last columns were filled with ddH2O. In addition, the positive and negative controls were symmetrically distributed through the columns.
A total of 298 compounds belonged to three distinct collections including i) indenoisoquinolines obtained from Dr. Mark S. Cushman, Department of Medicinal Chemistry and Molecular Pharmacology (Purdue University, Indiana, USA.); ii) podophylotoxin and quinones were a kindly gift from Dr. Arturo San Feliciano, Deparment of Química Farmacéutica (Universidad de Salamanca, Spain) and iii) carbolins obtained from Dr. Sankaran Murugeshan, Department of Pharmacy, (Birla Institute of Technology & Science, Pilani, India). Stock solutions consisted of test compound at a concentration of 200 μM in 20% DMSO. The 200 μM master plates were further diluted by transferring aliquots of 5 μl into black 384-well plates with clear bottom containing 45 μl of culture medium. The final concentration of DMSO in both assay and control wells not exceeded 1% (v/v). […] The plates were incubated at 37 °C and 5% CO2 and at 0, 24, 48 and 72 h the infrared signal was recorded using the Odyssey infrared system (LI-COR, USA). […]
The antileishmanial effect of the compounds was calculated as the percentage inhibition in relation to AmpB and DMSO as follows: (mean of 1%DMSO–Experimental Value) / (mean of 1%DMSO–mean of AmpBEC100) x 100. […] The quality of the assay was given by Z’ factor that was calculated as 1 –[(3SD positive controls + 3SD negative controls) / (mean of the positive controls–mean of the negative controls)]. […]
Firstly, we checked the fluorescence dynamic range in which we could assure the effective and quantifiable replication of intracellular parasites inside macrophages in the absence of active drug over the course of the ex vivo culture. […] For this purpose, we fixed the fluorescence level per well, instead of adjusting the number of cells. […]

Each structure is given as a SMILES string. Read-outs that look alike come from different tables or passages of the source.

With `C[C@@H]1[C@H](O)[C@@H](C)/C=C/C=C/C=C/C=C/C=C/C=C/C=C/[C@H](O[C@@H]2O[C@H](C)[C@@H](O)[C@H](N)[C@@H]2O)C[C@@H]2O[C@](O)(C[C@@H](O)C[C@@H](O)[C@H](O)CC[C@@H](O)C[C@@H](O)CC(=O)O[C@H]1C)C[C@H](O)[C@H]2C(=O)O` [AmpB, amphotericin B], the IC50 was 270 to 380 nM (72 h, across all starting cell densities (1.0, 2.0 and 4.0 x10^5 AU), read-out: IC50 values at 72 h); 310 ± 50 nM (starting cell density High: 4x10^5 AU, ten 2-fold dilutions from 10 μM, Fig 4E); 380 ± 60 nM (starting cell density Low: 1x10^5 AU, ten 2-fold dilutions from 10 μM, Fig 4C); 270 ± 40 nM (starting cell density Medium: 2x10^5 AU, ten 2-fold dilutions from 10 μM, Fig 4D).
